Data set [1] has as its target T1, proton, potassium-adenosine triphosphatase (H+/K+-ATPase) (Sus scrofa, UniProt P19156).
T1 construct: a gastric mucous membrane microsomal fraction was prepared from the stomach of swine; from tissue; host or cells: swine stomach, gastric mucous membrane microsomal fraction
Briefly: Proton potassium-adenosine triphosphatase (H+,K+-ATPase) inhibitory activity test. Format: biochemical. The settings on record: swine gastric mucous membrane microsomal fraction, pH 6.5, 37° C. As to the method: According to the method [Biochim. Biophys. Acta, 728, 31 (1983)] of Wallmark et al., a gastric mucous membrane microsomal fraction was prepared from the stomach of swine. First, the stomach was removed, washed with tap water, immersed in 3 mol/L brine, and the surface of the mucous membrane was wiped with a paper towel. The gastric mucous membrane was detached, chopped, and homogenized in a 0.25 mol/L saccharose solution (pH 6.8) containing 1 mmol/L EDTA and 10 mmol/L tris-hydrochloric acid using polytron (Kinematica). The obtained homogenate was centrifuged at 20,000×g for 30 min and the supernatant was centrifuged at 100,000×g for 90 min. The precipitate was suspended in 0.25 mol/L saccharose solution, superimposed on a 0.25 mol/L saccharose solution containing 7.5% Ficoll, and centrifuged at 100,000×g for 5 hr. The fraction containing the interface between the both layers was recovered, and centrifugally washed with 0.25 mol/L saccharose solution. The obtained microsomal fraction was used as a proton, potassium-adenosine triphosphatase standard product.
To 40 μL of a 50 mmol/L HEPES-tris buffer (5 mmol/L magnesium chloride, 10 mmol/L potassium chloride, 10 μmol/L valinomycin, pH=6.5) containing 2.5 μg/mL (based on the protein concentration) of the enzyme standard product was added a test compound (5 μL) dissolved in a 10% aqueous dimethyl sulfoxide solution, and the mixture was incubated at 37° C. for 30 min. The enzyme reaction was started by adding 5 μL of a 2 mmol/L adenosine triphosphate tris salt solution (50 mmol/L HEPES-tris buffer (5 mmol/L magnesium chloride, pH 6.5)). The enzyme reaction was carried out at 37° C. for 20 min, and 15 μL of a malachite green solution (0.12% malachite green solution in sulfuric acid (2.5 mol/L), 7.5% ammonium molybdate and 11% Tween 20 were mixed at a ratio of 100:25:2) was added to quench the reaction. After allowing to stand at room temperature for 15 min, the resulting reaction product of inorganic phosphorus with malachite green was colorimetrically determined at a wavelength of 620 nm. In addition, the amount of the inorganic phosphoric acid in the reaction solution free of potassium chloride was measured in the same manner, which was subtracted from the inorganic phosphoric acid amount in the presence of potassium chloride to determine the proton, potassium-adenosine triphosphatase activity. The inhibitory rate (%) was determined from the activity value of the control and the activity values of various concentrations of the test compound, and the 50% inhibitory concentration (IC50) of the proton, potassium-adenosine triphosphatase was determined.

For another data set, the system named is HepG2. Briefly: ATP content test. Format: cell-based, Human. The settings on record: HepG2, 100 μM, culture for one day, relative value to control (without drug). As to the method:
(§1) Human liver cancer-derived cell line HepG2 (ATCC No. HB-8065) was passaged using Dulbecco's Modified Eagle medium (DMEM; Invitrogen) containing 10% fetal bovine serum (FBS; TRACE SCIENTIFIC LTD.), 1 mmol/L sodium pyruvate (Invitrogen), 2 mmol/L L-glutamine (Invitrogen), 50 IU/mL penicillin (Invitrogen) and 50 μg/mL streptomycin (Invitrogen) at 5% CO2, 37° C. The test reagent was prepared with DMSO to 10 mM, and further diluted with DMEM medium containing 0.5% FBS, 1 mmol/L sodium pyruvate, 2 mmol/L L-glutamine, 50 IU/mL penicillin and 50 μg/mL streptomycin to a final concentration of DMSO of 0.1%. HepG2 (2×10^4 cells/well) was cultured on a 96 well white plate (Costar) with the test reagent at 5% CO2, 37° C. After culture for one day, the intracellular ATP content was measured using ATPLITE™ (PerkinElmer Life Sciences). The results are shown in Table 4 (n≧3, average value ±SD) as a relative value (%) to control (without addition of drug).

The test system of data set [2] is Caspase-3/7 activity in HepG2 cells. In words: Caspase-3/7 activity test. The settings on record: HepG2, 100 μM, culture for one day, relative to maximum with Staurosporine (100%) and no reagent (0%). The format is cell-based, Human. How it is done:
as §1
The Caspase-3/7 activity in the cells cultured for one day by a method similar to that in Experimental Example 3 was measured using CASPASE-GLO 3/7 Assay (Promega). The results are shown in Table 4 (n≧3, average value ±SD) as relative activity (%) of each reagent based on the maximum value of Caspase-3/7 activity when exposed to Staurosporine (100%), and the activity without addition of a test reagent (0%).

Where a name gives a salt, the structure may show the parent alone.

T1 sequence (P19156 2-1034 limits assumed): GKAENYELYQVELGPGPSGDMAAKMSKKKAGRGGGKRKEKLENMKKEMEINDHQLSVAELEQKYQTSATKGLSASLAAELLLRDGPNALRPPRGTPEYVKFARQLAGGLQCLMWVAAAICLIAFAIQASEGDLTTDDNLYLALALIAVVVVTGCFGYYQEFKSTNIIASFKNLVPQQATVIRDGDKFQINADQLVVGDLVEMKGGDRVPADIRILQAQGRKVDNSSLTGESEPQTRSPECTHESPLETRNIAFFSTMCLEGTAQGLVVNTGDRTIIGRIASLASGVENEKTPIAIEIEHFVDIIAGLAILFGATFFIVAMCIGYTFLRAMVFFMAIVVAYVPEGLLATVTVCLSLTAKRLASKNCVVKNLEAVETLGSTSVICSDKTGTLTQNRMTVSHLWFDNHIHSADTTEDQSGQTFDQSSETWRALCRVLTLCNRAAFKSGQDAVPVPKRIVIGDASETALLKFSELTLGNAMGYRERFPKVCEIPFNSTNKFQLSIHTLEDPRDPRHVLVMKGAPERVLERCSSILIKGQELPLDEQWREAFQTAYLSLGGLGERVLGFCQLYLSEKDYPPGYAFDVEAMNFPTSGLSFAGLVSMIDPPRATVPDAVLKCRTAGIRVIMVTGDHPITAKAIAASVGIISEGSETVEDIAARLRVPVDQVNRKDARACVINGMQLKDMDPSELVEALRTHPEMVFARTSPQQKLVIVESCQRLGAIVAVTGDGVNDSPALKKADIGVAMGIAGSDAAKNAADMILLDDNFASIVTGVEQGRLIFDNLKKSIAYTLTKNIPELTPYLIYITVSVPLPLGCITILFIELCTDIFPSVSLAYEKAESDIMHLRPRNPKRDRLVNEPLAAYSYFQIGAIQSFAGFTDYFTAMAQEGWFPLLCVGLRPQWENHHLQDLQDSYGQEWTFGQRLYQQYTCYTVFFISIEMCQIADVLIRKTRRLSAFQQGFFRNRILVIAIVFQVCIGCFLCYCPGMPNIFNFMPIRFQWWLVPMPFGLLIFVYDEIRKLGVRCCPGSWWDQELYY
T1 sequence (P18434 whole entry partner): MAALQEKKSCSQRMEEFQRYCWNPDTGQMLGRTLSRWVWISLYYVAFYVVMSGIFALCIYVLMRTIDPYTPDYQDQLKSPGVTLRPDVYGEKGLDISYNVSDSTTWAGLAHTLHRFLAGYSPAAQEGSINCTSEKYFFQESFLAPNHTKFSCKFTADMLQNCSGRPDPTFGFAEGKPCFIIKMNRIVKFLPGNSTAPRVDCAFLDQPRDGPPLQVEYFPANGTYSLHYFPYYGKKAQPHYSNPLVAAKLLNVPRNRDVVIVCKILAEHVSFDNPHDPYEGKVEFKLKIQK

Turning to `CNCc1cn(S(=O)(=O)c2cc(C)ccn2)c(-c2cccnc2F)c1F` [Example 2, 1-{4-Fluoro-5-(2-fluoropyridin-3-yl)-1-[(4-methylpyridin-2-yl)sulfonyl]-1H-pyrrol-3-yl}-N-methylmethanamine hydrochloride], half-maximal inhibition in data set [1] (IC50) was put at 100 nM. Besides, the “ATP content (%, 100 μM)” value with HepG2 is reported as 85.5%. Also, in data set [2], the “Caspase-3/7 activity (%, 100 μM)” value was −1.1%.

As to `CNCc1cn(S(=O)(=O)c2ccc(F)cn2)c(-c2cccnc2F)c1F` [Example 3, 1-{4-Fluoro-5-(2-fluoropyridin-3-yl)-1-[(5-fluoropyridin-2-yl)sulfonyl]-1H-pyrrol-3-yl}-N-methylmethanamine hydrochloride], in data set [1], it took 100 nM to reach half-maximal inhibition (IC50). In addition, in the data set with HepG2, the “ATP content (%, 100 μM)” value worked out at 86.5%. Besides, the “Caspase-3/7 activity (%, 100 μM)” value in data set [2] is given as −0.5%.

With `CNCc1cn(S(=O)(=O)c2cc(OC)ccn2)c(-c2cccnc2F)c1F` [Example 4, 1-{4-Fluoro-5-(2-fluoropyridin-3-yl)-1-[(4-methoxypyridin-2-yl)sulfonyl]-1H-pyrrol-3-yl}-N-methylmethanamine hydrochloride], the IC50 – broadly, the concentration at which inhibition is half-maximal – in data set [1] is 140 nM. Also, the “ATP content (%, 100 μM)” value in the data set with HepG2 turned out to be 84.5%. In data set [2], the “Caspase-3/7 activity (%, 100 μM)” value is reported as −0.6%.

`CNCc1cn(S(=O)(=O)c2cncc(F)c2)c(-c2cccnc2F)c1F` [Example 5, 1-{4-Fluoro-5-(2-fluoropyridin-3-yl)-1-[(5-fluoropyridin-3-yl)sulfonyl]-1H-pyrrol-3-yl}-N-methylmethanamine hydrochloride] gave an IC50 in data set [1] of 200 nM. Moreover, in the data set with HepG2, the “ATP content (%, 100 μM)” value turned out to be 88.9%. Besides, the “Caspase-3/7 activity (%, 100 μM)” value in data set [2] came to 0.3%.

`CNCc1cn(S(=O)(=O)c2ccc(C)nc2)c(-c2cccnc2F)c1F` [Example 8, 1-{4-Fluoro-5-(2-fluoropyridin-3-yl)-1-[(6-methylpyridin-3-yl)sulfonyl]-1H-pyrrol-3-yl}-N-methylmethanamine 0.5 fumarate] came in with an IC50 in data set [1] of 180 nM. Moreover, the “ATP content (%, 100 μM)” value in the data set with HepG2 is recorded as 76.7%. The “Caspase-3/7 activity (%, 100 μM)” value in data set [2] came out at 2.4%.

`CNCc1cn(S(=O)(=O)c2ccc(OC)cn2)c(-c2cccnc2F)c1F` [Example 10, 1-{4-Fluoro-5-(2-fluoropyridin-3-yl)-1-[(5-methoxypyridin-2-yl)sulfonyl]-1H-pyrrol-3-yl}-N-methylmethanamine hydrochloride]: the IC50 in data set [1] amounted to 280 nM. Also, the “ATP content (%, 100 μM)” value in the data set on HepG2 is given as 80.0%. For the same compound, the “Caspase-3/7 activity (%, 100 μM)” value in data set [2] was 0.9%.

In data set [1], `CNCc1cn(S(=O)(=O)c2cc(C)ccn2)c(-c2cccnc2F)c1F` [Example 23, 1-{4-Fluoro-5-(2-fluoropyridin-3-yl)-1-[(4-methylpyridin-2-yl)sulfonyl]-1H-pyrrol-3-yl}-N-methylmethanamine fumarate] registered an IC50 of 83 nM.

The compound `CNCc1cn(S(=O)(=O)c2cc(C)ccn2)c(-c2cccnc2F)c1F` [Example 24, 1-{4-Fluoro-5-(2-fluoropyridin-3-yl)-1-[(4-methylpyridin-2-yl)sulfonyl]-1H-pyrrol-3-yl}-N-methylmethanamine succinate] returned an IC50 in data set [1] of 140 nM.

In data set [1], `CNCc1cn(S(=O)(=O)c2cncc(F)c2)c(-c2cccnc2F)c1F` [Example 25, 1-{4-Fluoro-5-(2-fluoropyridin-3-yl)-1-[(5-fluoropyridin-3-yl)sulfonyl]-1H-pyrrol-3-yl}-N-methylmethanamine 0.5 fumarate] displayed an IC50 of 200 nM.

As for `CNCc1cn(S(=O)(=O)c2cncc(F)c2)c(-c2cccnc2F)c1F` [Example 26, 1-{4-Fluoro-5-(2-fluoropyridin-3-yl)-1-[(5-fluoropyridin-3-yl)sulfonyl]-1H-pyrrol-3-yl}-N-methylmethanamine succinate], in data set [1], the IC50 was 130 nM.

For `CNCc1cn(S(=O)(=O)c2cncc(F)c2)c(-c2cccnc2F)c1F` [Example 27, 1-{4-Fluoro-5-(2-fluoropyridin-3-yl)-1-[(5-fluoropyridin-3-yl)sulfonyl]-1H-pyrrol-3-yl}-N-methylmethanamine L-tartrate], the IC50 in data set [1] was 160 nM.
